Several values for one entry are separate records, joined by “and”; a condition that tells them apart may be missing. Identical values can stand only once. Like-named read-outs stand apart in the source and are kept apart here.
How the values were obtained:
[1] = tested on: bloodstream trypomastigote forms of T. cruzi (Y strain); test: Activity against bloodstream trypomastigote forms; format: cell-based, Trypanosoma cruzi; details: in vitro, mean ± standard deviation of at least four separate experiments, read-out: IC50 (trypanocidal activity)
Procedure: The trypanocide profiles of the new TAI derivatives 3–12 was evaluated in vitro using bloodstream trypomastigote forms of T. cruzi (Y strain) isolated from infected Swiss mice and are summarised in Table 1.
Stock solutions of NAH derivatives were prepared in DMSO. Bloodstream trypomastigote forms of T. cruzi (Y strain) were isolated from infected Swiss mice and re-suspended with Dulbecco’s modified Eagle medium plus 10% foetal calf serum (DMES) to a parasite concentration of 10 × 10^6 cells/mL. This suspension (100 μL) was added to the same volume of each NAH derivative, previously prepared at twice the desired concentrations in DMES. Stock solutions of the NAH derivatives were prepared in dimethylsulfoxide (DMSO), and they were assayed in the range of 0.5 to 2000 μg/mL. The final concentration of DMSO never exceeded 0.5%, thus, it had no deleterious effect on the parasites.

[2] = Cytotoxic effect on murine macrophages (Alamar Blue assay); format: cell-based; details: mouse, J774 macrophage cell line, murine macrophages J774, 21 h after the treatment
Procedure: (§1) Cellular viability in the presence and absence of TAI derivatives (4–6) was determined using Alamar Blue assay (Invitrogen). The macrophage cell line J774 was seeded into black clear flat-bottomed 96-well plates in a density of […]. After 1 h of incubation in controlled atmosphere (5% CO2, 37 °C),cells received fresh medium with or without Tween 20 (3%), DMSO (0.5%) and the TAI compounds (1 to 100 μM) in a quadruplicate assay. After 21 h of incubation in the previous conditions, 20 μL of Alamar Blue solution was added to each well and after 3 h, fluorescence was measured using SpectraMax M5/M5^e microplate reader (Molecular Devices; λexc = 555 nm, λem = 585 nm).

[3] = tested on: macrophage cell line J774; test: Cytotoxic effect on murine macrophages (Alamar Blue assay); format: cell-based
Procedure: as §1

Compound	IC50 ([1]; Trypanosoma cruzi) [µM]	melting point	further results
Cn1c([N+](=O)[O-])cnc1-c1c(-c2ccccc2)nc(-c2ccc(Cl)cc2)n1O [Compound 5, 2'-(4-Chlorophenyl)-1-methyl-5-nitro-5'-phenyl-1H,3'H-2,4'-biimidazol-3'-ol]	34.6 ± 2.43	249 to 250 °C	viability at 21 h, 1 µM [2]: 95.7%; viability at 21 h, 10 µM [2]: 97.6%; viability at 21 h, 100 µM [2]: 93.1%
Cn1c([N+](=O)[O-])cnc1-c1c(-c2ccccc2)nc(-c2ccc(O)c(O)c2)n1O [Compound 10, 4-(3'-Hydroxy-1-methyl-5-nitro-5'-phenyl-1H,3'H-2,4'-biimidazol-2'-yl)benzene-1,2-diol]	360 ± 24.7		
2'-(3-Hydroxy-4-methoxy-5-nitrophenyl)-1-methyl-5-nitro-5'-phenyl-1H,3'H-2,4'-biimidazol-3'-ol [Compound 12]			IC50 [1]: 242 ± 7.54 µM
Cn1c([N+](=O)[O-])cnc1-c1c(-c2ccccc2)nc(-c2ccccc2)n1O [Compound 3, 1-Methyl-5-nitro-2',5'-diphenyl-1H,3'H-2,4'-biimidazol-3'-ol]	108 ± 5.65	217 to 218 °C	
COc1ccc(-c2nc(-c3ccccc3)c(-c3ncc([N+](=O)[O-])n3C)n2O)cc1 [Compound 8, 2'-(4-Methoxyphenyl)-1-methyl-5-nitro-5'-phenyl-1H,3'H-2,4'-biimidazol-3'-ol]	192 ± 25.3	218 to 219 °C	
Cn1c([N+](=O)[O-])cnc1-c1c(-c2ccccc2)nc(-c2ccc(O)cc2)n1O [Compound 9, 2'-(4-Hydroxyphenyl)-1-methyl-5-nitro-5'-phenyl-1H,3'H-2,4'-biimidazol-3'-ol]	294 ± 28		
O=C(Cn1ccnc1[N+](=O)[O-])NCc1ccccc1 [Bzn, benznidazole, reference compound]	10.8 ± 0.4		
COc1ccc(-c2nc(-c3ccccc3)c(-c3ncc([N+](=O)[O-])n3C)n2O)cc1O [Compound 11, 2'-(3-Hydroxy-4-methoxyphenyl)-1-methyl-5-nitro-5'-phenyl-1H,3'H-2,4'-biimidazol-3'-ol]	200 ± 2.02	213 to 214 °C and 213 °C	
Cn1c([N+](=O)[O-])cnc1-c1c(-c2ccccc2)nc(-c2ccc([N+](=O)[O-])cc2)n1O [Compound 7, 1-Methyl-5-nitro-2'-(4-nitrophenyl)-5'-phenyl-1H,3'H-2,4'-biimidazol-3'-ol]	242 ± 37.6	361 to 362 °C	
Cn1c([N+](=O)[O-])cnc1-c1c(-c2ccccc2)nc(-c2ccc(Br)cc2)n1O [Compound 6, 2'-(4-Bromophenyl)-1-methyl-5-nitro-5'-phenyl-1H,3'H-2,4'-biimidazol-3'-ol]	23.9 ± 4.88		effect on cell viability (in words) ([3]; 100 μM, murine macrophages): weakly reduced cell viability; cytotoxic effects (in words) ([3]; host cells (murine macrophages) at concentrations near the trypanocidal IC50): did not present cytotoxic effects; viability at 21 h, 1 µM [2]: 97.3%; viability at 21 h, 10 µM [2]: 97.6%; viability at 21 h, 100 µM [2]: 78.7%
Cn1c([N+](=O)[O-])cnc1-c1c(-c2ccccc2)nc(-c2ccc(F)cc2)n1O [Compound 4, 2'-(4-Fluorophenyl)-1-methyl-5-nitro-5'-phenyl-1H,3'H-2,4'-biimidazol-3'-ol]	67.8 ± 8.39		viability at 21 h, 1 µM [2]: 94.2%; viability at 21 h, 10 µM [2]: 98.9%; viability at 21 h, 100 µM [2]: 97.6%
